# Results taken from patent EP4635500A1, “THERAPEUTIC AGENT FOR BACTERIAL INFECTION” (Sumitomo Pharma Co., Ltd., priority 2022, dated 2024).
# System: Citrobacter freundii
# Test: MIC and MBC, broth microdilution (Example 4, Table 3)
# Format: cell-based
# Conditions: Citrobacter freundii CDC-157 (NDM-1)
smiles,measurement,value
"CC(C)(O/N=C(\C(=O)N[C@@H]1C(=O)N2C(C(=O)[O-])=C(C[n+]3ccccc3)CS[C@H]12)c1csc(N)n1)C(=O)O [CAZ, ceftazidime]",MBC,> 128 µg/mL
same,MIC,> 128 µg/mL
